# Reference: patent US20090247492A1, “MANGANESE BASED ORGANOMETALLIC COMPLEXES, PHARMACEUTICAL COMPOSITIONS AND DIETETIC PRODUCTS” (MEDESIS PHARMA S.A.,, priority 2003, published 2009)
# Several values for one entry are separate records, joined by “and”; a condition that tells them apart may be missing. Identical values can stand only once.
# What was measured:
# [1] = test system: edema produced by injection of adriamycin under the arch of the hind paw of the rat; experiment: adriamycin test: paw edema in the Wistar rat (anti-free radical activity); format: in vivo; set-up: Paw volume, group mean: unit not given beside the values; settings: for Paw volume, individual animals / Paw volume, group mean / Percentage paw edema, individual animals / Percentage paw edema, group mean: 100 mg/kg IP daily; for Paw volume, group mean / Percentage paw edema, group mean: 10 rats; for Percentage of edema inhibition (protection): vs olive oil control, Diosmine 100 mg/kg IP, Example 4 1 ml/kg IP
# Procedure: The adriamycin test is a specific test used to show evidence of the anti-free radical activity of a test substance. This test is described in G. Jadot, Cedema from adriamycin in the Wistar rat. SuperOxide Dismutases, p 73-77, Masson Ed., Paris, 1988.
# One hour following injection of Adriamycin, a temporary inflammatory response lasting 12 hours can be observed. This first phase corresponds to the release of histamine, serotonine and the accumulation of polynuclear neutrophiles. A second inflammatory phase commences on the third day following administration and continues for 5 days. During this inflammatory phase, vascular hyperpermeability […] endothelial cell membrane alteration produced by free radical oxidative damage. Steroidal and non-steroidal anti-inflammatory drugs are not effective during this second inflammatory phase.
# Research into an anti-free radical activity in the rat by intra-peritoneal administration consists of measuring the reduction in edema produced by injection of adriamycin under the arch of the hind paw of the rat.
# Male Wistar rats were used for these tests, after a quarantine period of 15 days.
# (Edema was induced by subcutaneous injection of a 0.2 ml solution of adriamycin (2.5 mg/ml) in the arch of the right hind paw of the rat (Siegel's method modified by Jadot (1988)).
# The compounds tested were administered 2 hours before the first measurements on the first day, and 1 hour before the measurements on the following days, until the 8th day.
# The measurement of edema volume was determined by plethysmography and was performed immediately before injection of adriamycin on the first day (base measurement), and then every day at the same time.
# The treatment was maintained for the entire duration of the study. The control group received the dosing vehicle only.
# Following the establishment of groups of 10 animals, daily intra-peritoneal administration was carried out according to the following scheme:
# Negative control: animals administered olive oil (1 ml/kg).
# Positive control: animals administered 100 mg/kg de diosmine (1 ml/kg).
# Example 4: animals administered example 4 (1 mil/kg)
# Paw edema, expressed as a percentage, is calculated for each animal at each time point:
# The percentage reduction in paw oedema at each time point and for each group of animals are calculated as follows: […]
# Anti-free radical activity is shown by a significant reduction in paw volume in the treated group compared to the control group.
# [2] = activity of the sterol constituent (test not specified); settings: pure sterol in place of sitosterol
# [3] = test system: edema produced by injection of adriamycin under the arch of the hind paw of the rat; settings: cf JL Jadot; cited from earlier work
# [4] = iv-injected, rat; cited from earlier work
compound,measurement,setting,value
COc1ccc(-c2cc(=O)c3c(O)cc(O[C@@H]4O[C@H](CO[C@@H]5O[C@@H](C)[C@H](O)[C@@H](O)[C@H]5O)[C@@H](O)[C@H](O)[C@H]4O)cc3o2)cc1O [Diosmine],"Paw volume, individual animals","[1]; D1 (base), before adriamycin, 100 mg/kg",116 and 108 and 102 (2×) and 105 and 120 and 113 and 107 and 103 and 91
same,"Paw volume, group mean","[1]; D1 (base), before adriamycin",106.70
same,Paw volume in comparison to the negative control,"[1]; D2-D7, highest significance for Example 4 at D3 and D4 (p<0.001), disappears at D8",statistically significant difference
same,"Paw volume, individual animals",[1]; D2,129 and 152 and 112 (2×) and 107 and 128 and 135 and 118 and 110 and 105
same,"Percentage paw edema, individual animals",[1]; D2,11.21% and 40.74% and 9.80% (2×) and 1.90% and 6.67% and 19.47% and 10.28% and 6.80% and 15.38%
same,"Paw volume, group mean",[1]; D2,120.80
same,"Percentage paw edema, group mean",[1]; D2,13.21%
same,"Percentage of paw edema, change versus control","[1]; D2 to D5, most significant at D3 for Example 4 (p<0.001)",significant decrease
same,"Paw volume, individual animals",[1]; D3,162 and 181 and 142 and 126 and 158 and 160 (2×) and 138 and 134 and 161
same,"Percentage paw edema, individual animals",[1]; D3,39.66% and 67.59% and 39.22% and 20.00% and 31.67% and 41.59% and 49.53% and 35.29% and 30.10% and 76.92%
same,"Paw volume, group mean",[1]; D3,152.20
same,"Percentage paw edema, group mean",[1]; D3,43.16%
same,Percentage of edema inhibition (protection),[1]; D3,44.15%
same,"Paw volume, individual animals",[1]; D4,152 (2×) and 121 and 180 and 143 and 172 and 158 and 142 and 223 and 187
same,"Percentage paw edema, individual animals",[1]; D4,31.03% and 12.04% and 76.47% and 36.19% and 43.33% and 39.82% and 32.71% and 118.63% and 81.55% and 67.03%
same,"Paw volume, group mean",[1]; D4,163.00
same,"Percentage paw edema, group mean",[1]; D4,53.88%
same,Percentage of edema inhibition (protection),[1]; D4,36.98%
same,"Paw volume, individual animals",[1]; D5,195 and 200 and 152 and 172 and 188 and 175 and 186 and 165 and 173 and 170
same,"Percentage paw edema, individual animals",[1]; D5,68.10% and 85.19% and 49.02% and 63.81% and 56.67% and 54.87% and 73.83% and 61.76% and 67.96% and 86.81%
same,"Paw volume, group mean",[1]; D5,177.6
same,"Percentage paw edema, group mean",[1]; D5,66.80%
same,Percentage of edema inhibition (protection),[1]; D5,21.77%
same,"Paw volume, individual animals",[1]; D6,193 and 194 and 153 and 179 and 177 and 172 and 199 and 167 and 183 and 158
same,"Percentage paw edema, individual animals",[1]; D6,66.38% and 79.63% and 50.00% and 70.48% and 47.50% and 52.21% and 85.98% and 63.73% and 77.67% and 73.63%
same,"Paw volume, group mean",[1]; D6,177.50
same,"Percentage paw edema, group mean",[1]; D6,66.72%
same,Percentage of edema inhibition (protection),[1]; D6,12.03%
same,"Paw volume, individual animals",[1]; D7,195 and 176 and 148 and 174 and 164 (2×) and 166 and 172 and 173 and 150
same,"Percentage paw edema, individual animals",[1]; D7,68.10% and 62.96% and 45.10% and 65.71% and 36.67% and 46.90% and 60.75% and 60.78% and 67.96% and 64.84%
same,"Paw volume, group mean",[1]; D7,168.20
same,"Percentage paw edema, group mean",[1]; D7,57.98%
same,Percentage of edema inhibition (protection),[1]; D7,14.05%
same,"Paw volume, individual animals",[1]; D8,180 and 173 and 145 and 156 and 165 and 164 (2×) and 175 and 159 and 154
same,"Percentage paw edema, individual animals",[1]; D8,55.17% and 60.19% and 42.16% and 48.57% and 37.50% and 45.13% and 63.55% and 60.78% and 54.37% and 69.23%
same,"Paw volume, group mean",[1]; D8,163.50
same,"Percentage paw edema, group mean",[1]; D8,53.67%
same,Percentage of edema inhibition (protection),[1]; D8,0%
same,Free radical protection activity (conclusion),[1]; edema progression compared to the control group,confirmed its activity
CC(C)[C@H](C)CC[C@@H](C)[C@H]1CC[C@H]2[C@@H]3CC=C4C[C@@H](O)CC[C@]4(C)[C@H]3CC[C@]12C [campesterol],activity of pure sterol,[2],no activity
CC[C@H](CC[C@@H](C)[C@H]1CC[C@H]2[C@@H]3CC[C@H]4C[C@@H](O)CC[C@]4(C)[C@H]3CC[C@]12C)C(C)C [sitostanol],activity of pure sterol,[2],no activity
bovine SOD: bovine superoxide dismutase enzyme,Protection against edema from free radical damage,[3],possesses the same characteristics as Diosmine
same,circulation half life,[4],7 min
